Measurements as given in patent US20230132667A1, “DRUG-LIKE MOLECULES AND METHODS FOR THE THERAPEUTIC TARGETING OF VIRAL RNA STRUCTURES” (UNIVERSITY OF WASHINGTON, priority 2020, published 2023).
Non-standard residues stand in square brackets, D forms with d. Agb = N=C(N)NCC[C@H](N)C(=O)O; Dab = NCC[C@H](N)C(=O)O

Experiments:
[1] = test system: HIV TAR; assay: Target-detected NMR (TOCSY, 1D imino spectra; stage 3); type: binding, HIV-1; details: chemical shift changes, TOCSY / 1D 1H imino spectra
Method: Stage 3. The third stage in the screening cascade involves monitoring changes in the NMR spectra of the RNA target to identity where on the target the compound binds and examine the structural characteristics of the interaction. This step is conducted in the same […] buffer used for screening, prepared either in 95% H2O/5% D2O (water buffer) or 99.99% D2O (D2O buffer) to monitor different classes of proton resonances (FIGS. 10A and 10B). Uniform labeling of bases with ^13C and ^15N can also be performed, but this is relatively expensive.
Target detect NMR assays to measure RNA-ligand interactions. Transcribed RNA sequences (at natural isotopic abundance, along with ^15N/^13C enriched or selectively labeled ^2H samples) are snap-cooled in 250-500 μL NMR buffer (50 mM d9 bis-Tris pH 6.5, 50 mM NaCl) by heating to 95° C. for 4 min then placed at −20° C. until frozen. All ligand stocks were dissolved in 10-20 mM H2O, D2O or DMSO depending on ligand solubility. […] Ligand interactions are detected by changes in chemical shift through a series of NMR experiments, including but not limited to 1D ^1H and 2D ^1H-^1H TOCSY, ^1H-^1H NOESY, ^1H-^1H EXSY, ^15N-^1H HSQC, and ^13C-^1H HSQC experiments, which are used to map the binding site of the ligand on the RNA. […]

[2] = test system: pre-miR-21; assay: Single point ligand-detected NMR relaxation assay in low salt buffer (stage 1); type: binding; details: 100 μM small molecule in low salt buffer, 10 μM RNA
Excerpt: (§1) For initial screening and hit identification, a relaxation edited ligand-detect method is used to detect binding under low salt conditions. These initial conditions are chosen to facilitate the discovery of even low affinity compounds with favorable chemical characteristics. Binding compounds are identified through changes in peak height when comparing spectra for RNA-free and RNA-bound ligand (FIG. 8). The change in peak height is proportional to the increase in ligand line width, compared to the free small molecule, which occurs upon binding to the larger biomolecule. This NMR method is agnostic to biomolecular target, as it only depends on the longer rotational correlation time (Tc) of the small molecule bound in a complex with a much larger biomolecular target, which has a much […] correlation time; other NMR methods (e.g., STD) can be used as well.
(§2) Stage 1. […] The free ligand linewidths of compounds dissolved at concentration of 100 μM were quantified and compared to the ligand linewidths observed after addition of 10 μM RNA target. […]
(§3) Small molecule hit identification and tiered approach to ligand-detected NMR screening. In order to identify small molecules that bind to RNA and quantify the strength of the interaction, a tiered approach to NMR screening involving both ligand- and target-detected NMR experiments was used. […]

[3] = target: HIV TAR; assay: 2-aminopurine (2AP) fluorescence binding assay; parameters: species or system HIV-1; details: 2AP-labeled HIV TAR, excess tRNA; single binding event; read-out: affinity by fitting Equation 1
Method: The fourth stage in the screening cascade quantifies binding using an orthogonal biophysical method.
To quantify binding of the compounds to HIV TAR, a 2-amino purine method was used. In this assay, U25 on HIV TAR was substituted with 2-aminopurine and binding assays were conducted on a Horiba Tau fluorometer.
2-AP binding assays. Fluorescence intensity binding assays were conducted using a method based on the incorporation of a single fluorescent base analogue (2-amino-purine, 2AP) in place of U25 for HIV TAR, and by monitoring changes in the reporter emission fluorescence intensity at 362 nm upon small molecule titration. Each experiment was collected in duplicate with 50 nM 2AP-TAR titrated with 5 mL of ligand stock solutions prepared by serial dilution. Methods were followed with 250×fold excess yeast tRNA added to the buffer as a competitor to reduce non-specific binding. Data were collected on a Horiba FL3-21tau Fluorescence Spectrophotometer, exported to Graphpad Prism v.8.1.1 and fit to Equation 1.
where Y is the measured fluorescence at 362 nm, Yi is fluorescence of the fully bound target, Yo is the fluorescence of the unbound RNA, Rt is total RNA concentration, Lt is total ligand concentration and Kd is the binding affinity.

[4] = test system: HIV TAR; assay: Single point ligand-detected NMR relaxation assay in low salt buffer (stage 1); type: binding, HIV-1; details: 100 μM small molecule in low salt buffer, 10 μM RNA
Excerpt: as §1, §2, §3

[5] = test system: Tat-dependent reactivation; details: cited from earlier work

Compound | binding to HIV TAR by target-detected NMR (qualitative) [1] | single point binding response to pre-miR-21 [2] | Kd [3] | single point binding response to HIV TAR [4] | inhibition of Tat-dependent reactivation in cells [5]
CN(C)C(=O)c1cc2cnc(Nc3ccc(N4CCNCC4)cn3)nc2n1C1CCCC1 [Ribociclib] | high nM binding | binding responses | 215 ± 56 nM | binding responses | 
cyclo(P(dab)VRTRKGRRI(NOR)Ip) (cyclo(P[Dab]VRTRKGRRI[Agb]I[dP])) [JB181] |  |  |  |  | only moderately inhibits
